From ChEMBL document CHEMBL1201862, “PubChem BioAssay data set” (2004)
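Grown in 96-well plates, cells were treated for 48 hours with each compound at five concentrations. Insufficient inhibition: endpoint recorded as highest concentration tested. GI50 is the concentration that inhibits growth by half.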 Activity calls are given as the source filed them. No stated cut-off is given here; in the data, active = GI50 up to about 1.1 µM and inactive = higher.

Tests used:
Experiment in all cases: NCI anticancer screen, dose series, 48 h
[1] = system: TK-10
[2] = system: HOP-62
[3] = system: CAKI-1
[4] = system: SF-539
[5] = system: SK-MEL-5
[6] = system: SR
[7] = system: SNB-75
[8] = system: HL-60
[9] = system: A498
[10] = system: SNB-19
[11] = system: NCI-H226
[12] = system: LOX IMVI
[13] = system: 786-0
[14] = system: CCRF-CEM
[15] = system: UACC-62
[16] = system: NCI-H460
[17] = system: HT-29
[18] = system: PC-3
[19] = system: OVCAR-4
[20] = system: DLD-1

| Structure (SMILES) | GI50 [1] | GI50 [2] | GI50 [3] | GI50 [4] | GI50 [5] | GI50 [6] | GI50 [7] | GI50 [8] | GI50 [9] | GI50 [10] | GI50 [11] | GI50 [12] | GI50 [13] | GI50 [14] | GI50 [15] | GI50 [16] | GI50 [17] | GI50 [18] | GI50 [19] | GI50 [20] |
| --- | --- | --- | --- | --- | --- | --- | --- | --- | --- | --- | --- | --- | --- | --- | --- | --- | --- | --- | --- | --- |
| N=C(N)NC(=N)Nc1ccc(S(=O)(=O)O)cc1 | > 100 µM (inactive) | > 100 µM (inactive) | > 100 µM (inactive) | > 100 µM (inactive) | > 100 µM (inactive) | > 100 µM (inactive) | > 100 µM (inactive) | > 100 µM (inactive) | > 100 µM (inactive) | > 100 µM (inactive) | > 100 µM (inactive) | > 100 µM (inactive) | > 100 µM (inactive) | > 100 µM (inactive) | > 100 µM (inactive) | > 100 µM (inactive) | > 100 µM (inactive) | > 100 µM (inactive) | > 100 µM (inactive) | – |
| O=[N+]([O-])c1ccccc1C1N2CCCCC2[C@@H]2c3[nH]c4ccccc4c3CCN12 (stereo partly drawn) | 16.5 µM (inactive) | 14.8 µM (inactive) | 14 µM (inactive) | 12.2 µM (inactive) | 13.4 µM (inactive) | – | – | 3.7 µM (inactive) | 12.6 µM (inactive) | 14.9 µM (inactive) | – | – | 16.1 µM (inactive) | 10.4 µM (inactive) | 3.78 µM (inactive) | 17.7 µM (inactive) | 7.53 µM (inactive) | – | 17.3 µM (inactive) | 14.2 µM (inactive) |
| O=C(NCCNCCNCCNC(=O)c1cc(-c2ccccc2)nc2ccccc12)c1cc(-c2ccccc2)nc2ccccc12 | 3.01 µM (inactive) | 2.51 µM (inactive) | 15.3 µM (inactive) | 2.08 µM (inactive) | 1.52 µM (inactive) | 2.02 µM (inactive) | 1.78 µM (inactive) | 1.74 µM (inactive) | 3.16 µM (inactive) | 3.79 µM (inactive) | 2.64 µM (inactive) | 1.56 µM (inactive) | 1.66 µM (inactive) | 2.28 µM (inactive) | 2.05 µM (inactive) | 1.79 µM (inactive) | 1.7 µM (inactive) | 3.48 µM (inactive) | 3.43 µM (inactive) | – |
| CCOC(=O)c1sc2[n+](c1C)C(=O)/C(=C/c1ccccc1Cl)S2 | 15.3 µM (inactive) | 1.61 µM (inactive) | 0.453 µM (active) | 0.472 µM (active) | 0.421 µM (active) | 0.394 µM (active) | 0.425 µM (active) | 4.12 µM (inactive) | 6.92 µM (inactive) | 0.579 µM (active) | 0.953 µM (active) | 0.851 µM (active) | 0.618 µM (active) | 15.3 µM (inactive) | 0.447 µM (active) | 0.65 µM (active) | 3.44 µM (inactive) | 0.989 µM (active) | 33.3 µM (inactive) | – |
| O=C1CCCCCC1CC(Sc1ccccc1)Sc1ccccc1 (stereo not drawn) | > 100 µM (inactive) | > 100 µM (inactive) | > 100 µM (inactive) | > 100 µM (inactive) | 52.5 µM (inactive) | 32.8 µM (inactive) | 49.3 µM (inactive) | 21 µM (inactive) | > 100 µM (inactive) | > 100 µM (inactive) | > 100 µM (inactive) | > 100 µM (inactive) | > 100 µM (inactive) | 25.2 µM (inactive) | 81.8 µM (inactive) | 64.7 µM (inactive) | > 100 µM (inactive) | 51.6 µM (inactive) | 96.4 µM (inactive) | – |
| CN(C)/C=N\c1nc(=O)n(C2CCC(CO)O2)cc1F (stereo not drawn) | > 100 µM (inactive) | > 100 µM (inactive) | > 100 µM (inactive) | – | > 100 µM (inactive) | – | > 100 µM (inactive) | > 100 µM (inactive) | – | > 100 µM (inactive) | > 100 µM (inactive) | > 100 µM (inactive) | > 100 µM (inactive) | > 100 µM (inactive) | – | > 100 µM (inactive) | > 100 µM (inactive) | – | > 100 µM (inactive) | > 100 µM (inactive) |
| c1csc(-c2cc(-c3cccs3)c(-c3ccsc3)s2)c1 | > 100 µM (inactive) | > 100 µM (inactive) | > 100 µM (inactive) | > 100 µM (inactive) | > 100 µM (inactive) | > 100 µM (inactive) | > 100 µM (inactive) | > 100 µM (inactive) | > 100 µM (inactive) | > 100 µM (inactive) | > 100 µM (inactive) | > 100 µM (inactive) | > 100 µM (inactive) | > 100 µM (inactive) | > 100 µM (inactive) | > 100 µM (inactive) | > 100 µM (inactive) | > 100 µM (inactive) | > 100 µM (inactive) | – |
| CC1(C)OCC2OC(n3cnc4c(N)nc(Cl)nc43)C(OS(C)(=O)=O)C2O1 (stereo not drawn) | > 100 µM (inactive) | > 100 µM (inactive) | > 100 µM (inactive) | > 100 µM (inactive) | > 100 µM (inactive) | > 100 µM (inactive) | > 100 µM (inactive) | > 100 µM (inactive) | > 100 µM (inactive) | > 100 µM (inactive) | > 100 µM (inactive) | > 100 µM (inactive) | > 100 µM (inactive) | > 100 µM (inactive) | > 100 µM (inactive) | > 100 µM (inactive) | > 100 µM (inactive) | > 100 µM (inactive) | > 100 µM (inactive) | – |
| Nc1nnnn1NC(=O)NCCCl | > 10 µM (inactive) | > 10 µM (inactive) | > 10 µM (inactive) | > 10 µM (inactive) | > 10 µM (inactive) | > 10 µM (inactive) | > 10 µM (inactive) | > 10 µM (inactive) | > 10 µM (inactive) | > 10 µM (inactive) | > 10 µM (inactive) | > 10 µM (inactive) | > 10 µM (inactive) | > 10 µM (inactive) | > 10 µM (inactive) | > 10 µM (inactive) | > 10 µM (inactive) | > 10 µM (inactive) | > 10 µM (inactive) | – |
| O=[N+]([O-])c1cccc(C(O)/C(=N/Nc2ccccc2)C2Nc3ccc([N+](=O)[O-])cc3N=C2O)c1 (stereo not drawn) | > 100 µM (inactive) | > 100 µM (inactive) | – | 13.2 µM (inactive) | 16.9 µM (inactive) | – | 74 µM (inactive) | 10.8 µM (inactive) | – | > 100 µM (inactive) | > 100 µM (inactive) | > 100 µM (inactive) | > 100 µM (inactive) | 81.8 µM (inactive) | 17.4 µM (inactive) | 42.9 µM (inactive) | 50.9 µM (inactive) | – | 78.5 µM (inactive) | > 100 µM (inactive) |
| Cc1c2cccc-2c2cc(O)c3ccccc3c2n1-c1ccc(N(C)C)cc1 | 13 µM (inactive) | 12.2 µM (inactive) | 16 µM (inactive) | 14.3 µM (inactive) | 11.8 µM (inactive) | 4.63 µM (inactive) | 4.06 µM (inactive) | 19.9 µM (inactive) | 17.1 µM (inactive) | 16.4 µM (inactive) | 9.68 µM (inactive) | 13.4 µM (inactive) | 12.2 µM (inactive) | 9.77 µM (inactive) | 16 µM (inactive) | 15.5 µM (inactive) | 16.7 µM (inactive) | 11.7 µM (inactive) | 3.37 µM (inactive) | – |
